Read-outs that look alike come from different tables or passages of the source.
Assays:
[1] = tested on: human gastric cancer cell line NCI-N87; assay: MTT Cell Proliferation Assay in NCI-N87; type: cell-based
Experimental: To test the activities of tris(8-quinolinolato)gallium(III), ATCC's MTT Cell Proliferation Assay® was performed using human gastric cancer cell line NCI-N87 (differentiated carcinoma). Stock cultures were allowed to grow to 70-80% confluence for this study. The anti-proliferative activity of tris(8-quinolinolato)gallium(III), against the indicated cell line was evaluated in vitro using the ATCC's MTT Cell Proliferation Assay (Catalog No. 30-1010K). NCI-N87 was grown using RPMI1640 (Cell Gro 10-040-CV), with 1% of 1M HEPES, 1% sodium pyruvate, 1% of 45% glucose solution, 10% of heat-inactivated FBS and 1% of pen/strep/glutamine. NCI-N87 cell plates were seeded with 20E+03 cells/well and treated with tris(8-quinolinolato)gallium(III) at 1,000 μM, or a series of 4×dilutions thereof (250 μM, 62.5 μM, etc.). 100 μl of medium was removed from each well at 72 hours post-treatment and 10 μl MTT reagent was added to each well. The plates were incubated plate at 37° C. for 4 hours and then 100 μl of detergent was added. The plates were left overnight at room temperature in the dark and was read on a plate reader using SoftMax® Pro (version 5.2, Molecular Devices).
The absorbance data was analyzed as follows: Absorbance values were converted to Percent of Control and plotted against test agent concentrations for IC50 calculations using SoftMax® Pro (version 5.2, Molecular Devices). The plate blank signal average was subtracted from all wells prior to calculating the Percent of Control. Percent of Control values were calculated by dividing the absorbance values for each test well by the No Drug Control average (column 11 values; cells+vehicle control) and multiplying by 100. Plots of Compound Concentration versus Percent of Control were analyzed using the 4-parameter equation to obtain IC50 values and other parameters that describe the sigmoidal dose response curve.
The IC50 value for the test agents was estimated by curve-fitting the data using the following four parameter-logistic equation:
wherein “Top” is the maximal % of control absorbance (100%) (Value “A” in FIG. 1, 88.3), “Bottom” is the minimal % of control absorbance at the highest agent concentration (down to zero) (Value “D” in FIG. 1, 20.8), Y is the Percent of Control absorbance, X is the test agent Concentration, IC50 is the concentration of agent that inhibits cell growth by 50% compared to the control cells (Value “C” in FIG. 1, 8.42e+03), n is the slope of the curve (Value “B” in FIG. 1, 2.31).

[2] = tested on: human esophageal carcinoma cell line OE33; assay: MTT Cell Proliferation Assay in OE33; type: cell-based
Experimental: To test the activity of tris(8-quinolinolato)gallium(III), ATCC's MTT Cell Proliferation Assay® was performed using human esophageal carcinoma cell line OE33. Stock cultures were allowed to grow to 70-80% confluence for this study. The anti-proliferative activity of tris(8-quinolinolato)gallium(III) against the indicated cell line was evaluated in vitro using the ATCC's MTT Cell Proliferation Assay (Catalog No. 30-1010K). OE33 plates were seeded with 1,200 cells/well, and the cells were grown in RPMI1640 medium containing 1% (1M HEPES), 1% sodium pyruvate, 10% FBS and 1% penicillin/strep/glutamine. Cultures were maintained in a 37° C. humidified 5% CO2/95% air atmosphere. The cells were treated with tris(8-quinolinolato)gallium(III) at 1,000 μM, or a series of 4×dilutions thereof (250 μM, 62.5 μM, etc.). […] The plates were left overnight at room temperature in the dark and was read on a plate reader using SoftMax® Pro (version 5.2, Molecular Devices).
The absorbance data was analyzed as follows: Absorbance values were converted to Percent of Control and plotted against test agent concentrations for IC50 calculations using SoftMax® Pro (version 5.2, Molecular Devices). […] Percent of Control values were calculated by dividing the absorbance values for each test well by the No Drug Control average (column 11 values; cells+vehicle control) and multiplying by 100. […]

[3] = NCI-N87, four parameter-logistic fit

With `[Ga+3].[O-]c1cccc2cccnc12.[O-]c1cccc2cccnc12.[O-]c1cccc2cccnc12` [tris(8-quinolinolato)gallium(III)] the “growth inhibition in MTT assay (FIG. 1)” value ([1]; NCI-N87) was “dose-dependent growth inhibition”, the “Bottom, minimal % of control absorbance at the highest agent concentration (Value "D" in FIG. 1)” value [1, 3] was 20.8 % of control and the “Top, maximal % of control absorbance (Value "A" in FIG. 1)” value [1, 3] was 88.3 % of control. The IC50 ([1]; NCI-N87, four parameter-logistic fit, X axis of FIG. 1 in nM, read-out: IC50 (Value "C" in FIG. 1)) was 8420 nM, the IC50 ([1]; NCI-N87 cell line, MTT, 72 hours post-treatment, read-out: IC50 (concentration of agent that inhibits cell growth by 50% compared to the control cells)) was 8420 nM and the “growth inhibition in MTT assay (FIG. 2)” value ([2]; OE33) was “dose-dependent growth inhibition”. The IC50 ([2]; OE33 cell line, MTT, 72 hours post-treatment, read-out: IC50 (concentration of agent that inhibits cell growth by 50% compared to the control cells)) was 3.06 µM.

— patent US20130324513A1, “METHOD FOR TREATING ESOPHAGEAL CANCER” (Niiki Pharma Acquisition Corp. 2, priority 2010, published 2013)
